According to patent US12629371B2, “Compositions and methods for inhibiting kinases” (Inhibikase Therapeutics, Inc., priority 2016, dated 2026):

Columns and labels:
[1] = target: PDGFRa (Homo sapiens, UniProt P16234); assay: Inhibition profile at 500 nM: PDGFRa; format: biochemical; conditions: 500 nM test compound; Table 2; read-out: Percent inhibition PDGFRa
Protocol: (§1) Then enzyme substrate is added as 10 μl of 2.5×FAM-labeled peptide+ATP solution to each well of the 384-well assay plate The reaction is allowed to proceed at 28° C. and quenched with the addition of 25 μl of stop buffer. The release of fluorescent FAM is quantitated as Percent inhibition=(max−conversion)/(max−min)*100.sp; “max” stands for DMSO control; “min” stands for low control. Convert conversion values to inhibition values. Percent inhibition=(max−conversion)/(max−min)*100. “max” stands for DMSO control; “min” stands for low control.

[2] = Human liver microsome stability; format: in vitro ADME; conditions: human liver microsomes; read-out: Human liver microsome t1/2
[3] = Pharmacokinetic parameters in Sprague-Dawley rats; design: AUC(0-t): concentration or dose not given beside the values; conditions: rat, in vivo
Protocol: Various pharmacokinetic parameters of the compounds described herein were measured in Sprague-Dawley rats.

[4] = tested on: mice treated with MPTP; assay: Mouse MPTP neurotoxicity model; format: in vivo; conditions: for dopamine levels (protection of dopamine-secreting neurons): HPLC-ECD, FIG. 4; for pole test latency: day 14, FIG. 3, control about 5 seconds, MPTP about 30
Protocol: Certain compounds of the present invention were evaluated using the MPTP neurotoxicity model. MPTP causes oxidative stress, which in turn causes c-Abl1 and/or c-Abl2 phosphorylation in the SNpc of mice treated with MPTP. MPTP administration according to this model produces a reliable, irreversible loss of DA neurons 7 days after the last injection, similar to that observed in PD. MPTP causes greater loss of DA neurons in SNpc and degeneration of DA nerve terminals in the caudate putamen. Many of the cell death signaling events observed in PD postmortem tissue are present in the MPTP model including oxidative stress, nitrosative stress, c-Abl activation, Parkin inactivation and PARIS and AIMP2 elevation and PARP activation. […] Because the model is relatively rapid, this model was used to assess dosing for future studies, and as a preliminary measure of efficacy.
The study design is depicted in FIG. 1. […] Wild type mice (n=5 per group) were divided into 4 treatment groups as follows: saline, MPTP, Drug and MPTP+Drug. Saline and MPTP groups were pre-treated with drug vehicle (unbuffered water) (20 animals total). Drug and MPTP+Drug groups received the test compounds for 6 days administered by oral gavage daily. On the seventh day, the saline and Drug groups received four intra-peritoneal (i.p.) injections of saline at 2 h intervals. The MPTP and MPTP+Drug groups received four intraperitoneal (i.p.) injections of MPTP·HCl (20 mg/kg free base) at 2 hr intervals. After the MPTP injection day, mice were treated for an additional 6 days with saline or an ATK inhibitor of the present invention. Mice in the saline and MPTP only groups received saline vehicle while the Drug and MPTP+Drug groups received an additional week of drug treatment. On the 14th day, mice were given a pole test, then sacrificed. Brain samples were processed for analysis of biogenic amine concentrations, including dopamine (DA), by high-performance liquid chromatography with electrochemical detection (HPLC-ECD). Loss of DA and its metabolites in the striatum is a consistently reliable indication of loss of DA neurons in the SNpc.

[5] = target: ABL (Homo sapiens, UniProt P00519); assay: Inhibition profile at 500 nM: ABL / Abl1; format: biochemical; conditions: 500 nM test compound; Table 1
Chain of ABL (P00519 whole entry): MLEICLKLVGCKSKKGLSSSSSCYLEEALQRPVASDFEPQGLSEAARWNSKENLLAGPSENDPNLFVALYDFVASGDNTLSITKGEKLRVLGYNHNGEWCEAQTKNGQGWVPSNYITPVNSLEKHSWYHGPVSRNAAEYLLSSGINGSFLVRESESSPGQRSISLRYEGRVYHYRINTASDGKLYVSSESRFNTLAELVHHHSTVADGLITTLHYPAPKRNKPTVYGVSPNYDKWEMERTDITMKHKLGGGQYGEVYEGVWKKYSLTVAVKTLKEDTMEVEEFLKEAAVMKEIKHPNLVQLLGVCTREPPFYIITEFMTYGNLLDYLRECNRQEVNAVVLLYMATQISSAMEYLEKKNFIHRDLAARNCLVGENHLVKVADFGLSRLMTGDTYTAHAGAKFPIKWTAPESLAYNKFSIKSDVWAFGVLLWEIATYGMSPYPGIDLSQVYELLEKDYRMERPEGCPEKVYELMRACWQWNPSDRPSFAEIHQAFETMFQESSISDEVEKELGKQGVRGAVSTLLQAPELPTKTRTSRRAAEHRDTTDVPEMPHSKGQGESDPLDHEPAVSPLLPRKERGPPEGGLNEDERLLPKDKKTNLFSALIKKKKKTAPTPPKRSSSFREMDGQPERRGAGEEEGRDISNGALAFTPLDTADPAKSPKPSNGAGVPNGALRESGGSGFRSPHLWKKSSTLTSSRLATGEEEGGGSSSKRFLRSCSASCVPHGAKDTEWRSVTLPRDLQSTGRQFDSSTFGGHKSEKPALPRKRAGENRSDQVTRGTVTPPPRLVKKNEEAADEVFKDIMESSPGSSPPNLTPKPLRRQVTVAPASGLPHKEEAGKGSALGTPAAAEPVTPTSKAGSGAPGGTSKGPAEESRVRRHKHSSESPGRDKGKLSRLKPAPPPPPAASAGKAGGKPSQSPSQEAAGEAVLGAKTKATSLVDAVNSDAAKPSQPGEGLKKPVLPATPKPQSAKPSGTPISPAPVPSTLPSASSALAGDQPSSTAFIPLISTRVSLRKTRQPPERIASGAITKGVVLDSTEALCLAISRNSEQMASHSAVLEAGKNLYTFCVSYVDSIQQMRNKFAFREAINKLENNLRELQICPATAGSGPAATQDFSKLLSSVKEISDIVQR
Protocol: as §1

[6] = target: ARG/Abl2 (Homo sapiens, UniProt P42684); assay: Inhibition profile at 500 nM: ARG/Abl2; format: biochemical; conditions: 500 nM test compound; Table 1
Chain of ARG/Abl2 (P42684 whole entry): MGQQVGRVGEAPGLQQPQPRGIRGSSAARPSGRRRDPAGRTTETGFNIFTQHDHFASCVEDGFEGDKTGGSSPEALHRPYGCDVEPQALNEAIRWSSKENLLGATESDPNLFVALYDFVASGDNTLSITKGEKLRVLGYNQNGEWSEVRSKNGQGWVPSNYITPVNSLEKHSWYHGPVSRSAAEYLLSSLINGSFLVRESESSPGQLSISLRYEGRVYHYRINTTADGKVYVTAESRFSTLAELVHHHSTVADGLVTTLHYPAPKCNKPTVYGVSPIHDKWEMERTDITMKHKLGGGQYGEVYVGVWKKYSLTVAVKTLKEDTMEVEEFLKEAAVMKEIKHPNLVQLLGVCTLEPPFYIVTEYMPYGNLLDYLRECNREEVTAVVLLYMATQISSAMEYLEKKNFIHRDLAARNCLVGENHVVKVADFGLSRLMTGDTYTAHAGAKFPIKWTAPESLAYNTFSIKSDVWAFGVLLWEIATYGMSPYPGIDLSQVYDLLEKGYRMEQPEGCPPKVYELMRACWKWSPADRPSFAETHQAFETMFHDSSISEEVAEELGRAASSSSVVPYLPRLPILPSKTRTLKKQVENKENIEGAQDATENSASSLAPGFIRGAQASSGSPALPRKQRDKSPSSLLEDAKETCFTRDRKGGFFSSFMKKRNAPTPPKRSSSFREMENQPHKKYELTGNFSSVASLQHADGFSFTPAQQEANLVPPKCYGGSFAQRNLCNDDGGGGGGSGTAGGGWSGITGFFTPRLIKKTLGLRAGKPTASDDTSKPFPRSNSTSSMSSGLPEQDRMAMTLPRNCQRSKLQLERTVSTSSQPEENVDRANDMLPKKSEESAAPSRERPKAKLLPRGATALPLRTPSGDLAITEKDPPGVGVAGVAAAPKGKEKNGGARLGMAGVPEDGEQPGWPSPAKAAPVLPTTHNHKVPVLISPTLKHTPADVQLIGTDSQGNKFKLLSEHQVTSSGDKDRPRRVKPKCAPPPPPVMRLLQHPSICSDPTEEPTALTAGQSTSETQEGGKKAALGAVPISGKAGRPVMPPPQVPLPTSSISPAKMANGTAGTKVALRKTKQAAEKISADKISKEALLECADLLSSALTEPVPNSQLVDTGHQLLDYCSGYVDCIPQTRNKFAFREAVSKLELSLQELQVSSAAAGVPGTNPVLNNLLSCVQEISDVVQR
Protocol: as §1

[7] = target: c-Abl1 (Homo sapiens, UniProt P00519); assay: Inhibition of Abelson protein kinase c-Abl1 (FAM-labeled peptide assay, IC50); format: biochemical
Chain of c-Abl1 (P00519 whole entry): as the sequence (P00519 whole entry) above
Protocol: (§2) Mix the compounds in intermediate plate for 10 min on shaker. For the assay of enzyme inhibitions, 5 μl of each well from the intermediate plate is transferred to a 384-well plate in duplicates, 10. […] Then enzyme substrate is added as 10 μl of 2.5×FAM-labeled peptide+ATP solution to each well of the 384-well assay plate The reaction is allowed to proceed at 28° C. and quenched with the addition of 25 μl of stop buffer. The release of fluorescent FAM is quantitated as Percent inhibition=(max−conversion)/(max−min)*100. “max” stands for DMSO control; “min” stands for low control. Data are fit in XLFit excel add-in version 4.3.1 to obtain IC50 values. Equation used is: Y=Bottom+(Top−Bottom)/(1+(IC50/X)^HillSlope).

[8] = target: c-Abl2 (Homo sapiens, UniProt P42684); assay: Inhibition of Abelson protein kinase c-Abl2 (FAM-labeled peptide assay, IC50); format: biochemical
Chain of c-Abl2 (P42684 whole entry): as the sequence (P42684 whole entry) above
Protocol: as §2

[9] = tested on: animal models of Parkinson's Disease; conditions: literature (J. Neurosci. 31(1); Scientific Reports 4:4874); cited from earlier work
[10] = tested on: mice treated with MPTP; conditions: known ATK inhibitors, background statement; cited from earlier work
[11] = Serum protein binding; format: in vitro ADME; conditions: rat
[12] = tested on: Mice injected with pre-formed alpha-synuclein fibrils; assay: Functional rescue in alpha-synuclein fibril model; format: in vivo
Text: Injection of pre-formed alpha-synuclein fibrils is known to induce Parkinson's-like disease in mice. […] This effect is believes to be due to the compound blocking the formation of toxic pre-formed-fibril alpha synuclein by inhibiting c-Abl.

[13] = tested on: A53T synuclein mice; assay: Functional rescue in mutated alpha-synuclein model; format: in vivo; conditions: A53T mutant alpha-synuclein mice
Text: The A53T mutant of alpha-synuclein is a clinically identified mutation that leads to hyper aggregation of alpha-synuclein in mice, and recapitulates the symptoms of Parkinson's disease such as dopaminergic neuron loss.
This effect is believed to be due to the compound blocking formation of the toxic form of A53T-alpha-synuclein by inhibiting c-Abl.

Chain of PDGFRa (P16234 24-1089): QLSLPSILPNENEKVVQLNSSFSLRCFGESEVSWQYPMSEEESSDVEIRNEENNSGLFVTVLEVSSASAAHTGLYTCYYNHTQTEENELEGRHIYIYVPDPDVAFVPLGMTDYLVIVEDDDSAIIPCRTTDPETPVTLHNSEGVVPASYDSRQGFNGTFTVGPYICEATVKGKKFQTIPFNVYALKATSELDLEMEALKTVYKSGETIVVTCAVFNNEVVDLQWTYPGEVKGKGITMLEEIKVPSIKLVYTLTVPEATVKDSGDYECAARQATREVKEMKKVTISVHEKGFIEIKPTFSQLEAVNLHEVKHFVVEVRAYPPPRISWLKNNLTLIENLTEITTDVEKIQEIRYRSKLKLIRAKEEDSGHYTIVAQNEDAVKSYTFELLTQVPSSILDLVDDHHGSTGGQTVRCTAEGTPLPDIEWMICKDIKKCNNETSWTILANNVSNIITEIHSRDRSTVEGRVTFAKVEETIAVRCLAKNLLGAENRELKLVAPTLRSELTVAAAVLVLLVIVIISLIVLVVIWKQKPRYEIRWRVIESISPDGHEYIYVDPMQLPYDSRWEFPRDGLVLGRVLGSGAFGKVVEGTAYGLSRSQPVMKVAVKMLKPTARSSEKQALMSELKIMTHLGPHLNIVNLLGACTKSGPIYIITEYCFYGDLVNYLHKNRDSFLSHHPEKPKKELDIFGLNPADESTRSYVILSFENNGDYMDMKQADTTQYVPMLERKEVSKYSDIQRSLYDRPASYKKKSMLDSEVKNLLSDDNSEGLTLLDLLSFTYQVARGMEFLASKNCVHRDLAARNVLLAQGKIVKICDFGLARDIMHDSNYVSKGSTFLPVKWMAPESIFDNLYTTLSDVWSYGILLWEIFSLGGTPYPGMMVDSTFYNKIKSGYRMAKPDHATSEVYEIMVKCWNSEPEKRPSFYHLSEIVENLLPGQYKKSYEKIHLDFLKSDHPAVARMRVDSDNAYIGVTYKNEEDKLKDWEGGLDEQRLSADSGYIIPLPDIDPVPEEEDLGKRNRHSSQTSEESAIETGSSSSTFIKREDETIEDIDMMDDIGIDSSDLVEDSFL

Q: For `Cc1ccc(NC(=O)c2ccc(CN3CCN(C)CC3)cc2)cc1Nc1nccc(-c2cncc(-c3ccnn3C)c2)n1` [Compound 831], which inhibition at 0.5 µM [1] is on record?
A: 100%

Q: Which results are given for `Cc1ccc(NC(=O)c2ccc(CN3CCN(C)CC3)cc2)cc1Nc1nccc(-c2cncc(-c3nccs3)c2)n1` [Compound 8270]?
A: half-life [2]: 0.348 h; AUC(0-t) [3]: 1760 ± 268 ng·h/mL; Cmax [3]: 210 ± 31 ng/mL; Tmax [3]: 5.3 h; Vd [3]: 7.8 ± 0.7 L/kg; bioavailability [3]: 46%; clearance [3]: 43.3 mL/min/kg; half-life [3]: 3.3 h; dopamine levels (protection of dopamine-secreting neurons) [4]: protected dopamine-secreting neurons from degeneration; pole test latency [4]: not statistically significant

Q: What does the source list for `Cc1ccnc(-c2cncc(-c3ccnc(Nc4cc(NC(=O)c5ccc(CN6CCN(C)CC6)cc5)ccc4C)n3)c2)c1` [Compound 830]?
A: half-life [2]: 0.326 h; inhibition at 0.5 µM [1]: 100%; AUC(0-t) [3]: 3720 ± 1090 ng·h/mL; Cmax [3]: 465 ± 115 ng/mL; Tmax [3]: 4 h; Vd [3]: 6.3 ± 1.1 L/kg; bioavailability [3]: 47%; clearance [3]: 21.7 mL/min/kg; half-life [3]: 3.6 h

Q: Which inhibition at 0.5 µM [1] does the source give for `Cc1cnc(-c2cncc(-c3ccnc(Nc4cc(NC(=O)c5ccc(CN6CCN(C)CC6)cc5)ccc4C)n3)c2)s1` [Compound 8280] here?
A: 100%

Q: With `Cc1ccc(NC(=O)c2ccc(CN3CCN(C)CC3)cc2)cc1Nc1nccc(-c2cncc(-n3cccn3)c2)n1` [Compound 303] as the compound, how does the “Percent inhibition ABL” value [5] read?
A: 79%

Q: And the “Percent inhibition ARG/Abl2” value [6]?
A: 62%

Q: With `Cc1ccc(NC(=O)c2ccc(CN3CCN(C)CC3)cc2)cc1Nc1nccc(-c2cncc(-c3cnns3)c2)n1` [Compound 8230] as the compound, how does the IC50 [7] read?
A: > 1000 nM

Q: And the IC50 [8]?
A: > 1000 nM

Q: For `Cc1cn(-c2cc(NC(=O)c3ccc(C)c(Nc4nccc(-c5cccnc5)n4)c3)cc(C(F)(F)F)c2)cn1` [nilotinib], which “effectiveness in animal models of Parkinson's Disease” value [9] is on record?
A: appear effective

Q: And the “neuroprotection in the acute MPTP-induced model of PD” value [10]?
A: provide neuroprotection

Q: With `Cc1csc(-c2cncc(-c3ccnc(Nc4cc(NC(=O)c5ccc(CN6CCN(C)CC6)cc5)ccc4C)n3)c2)n1` [Compound 8290] as the compound, how does the inhibition at 0.5 µM [1] read?
A: 100%

Q: Which results are given for `Cc1ccc(NC(=O)c2ccc(CN3CCN(C)CC3)cc2)cc1Nc1nccc(-c2cccnc2)n1` [imatinib, reference compound]?
A: effectiveness in animal models of Parkinson's Disease [9]: appear effective; AUC(0-t) [3]: 2730 ng·h/mL; Cmax [3]: 241 ng/mL; Tmax [3]: 4 h; bioavailability [3]: ~53%

Q: For `Cc1ccc(NC(=O)c2ccc(CN3CCN(C)CC3)cc2)cc1Nc1nccc(-c2cncc(-c3ccns3)c2)n1` [Compound 8170], which inhibition at 0.5 µM [1] is on record?
A: 100%

Q: For `Cc1nnc(-c2cncc(-c3ccnc(Nc4cc(NC(=O)c5ccc(CN6CCN(C)CC6)cc5)ccc4C)n3)c2)s1` [Compound 8260], which inhibition at 0.5 µM [1] is on record?
A: 100%

Q: With `Cc1ccc(NC(=O)c2ccc(CN3CCNCC3)cc2)cc1Nc1nccc(-c2cncc(-c3ccccn3)c2)n1` [Compound 880] as the compound, how does the inhibition at 0.5 µM [1] read?
A: 100%

Q: With `Cc1ccc(NC(=O)c2ccc(CN3CCN(C)CC3)cc2)cc1Nc1nccc(-c2cncc(-c3snnc3C)c2)n1` [Compound 8240] as the compound, how does the IC50 [7] read?
A: > 1000 nM

Q: And the IC50 [8]?
A: > 1000 nM

Q: With `Cc1ccc(NC(=O)c2ccc(CN3CCN(C)CC3)cc2)cc1Nc1nccc(-c2cncc(-c3oncc3C)c2)n1` [Compound 809] as the compound, how does the half-life [2] read?
A: 0.364 h

Q: And the fraction unbound [11]?
A: 0.143

Q: And the AUC(0-t) [3]?
A: 1060 ng·h/mL

Q: And the Cmax [3]?
A: 170 ng/mL

Q: What about the Tmax [3] of the same compound?
A: 4 h

Q: What about the Vd [3] of the same compound?
A: 7.2 L/kg

Q: What about the bioavailability [3] of the same compound?
A: 24%

Q: What about the clearance [3] of the same compound?
A: 45 mL/min/kg

Q: What about the half-life [3] of the same compound?
A: 2.2 h

Q: What about the “Parkinson's-like disease after pre-formed alpha-synuclein fibrils” value [12] of the same compound?
A: fail to exhibit Parkinson's like disease

Q: And the “dopaminergic neuron loss in A53T synuclein mice” value [13]?
A: fail to display the characteristics of dopaminergic neuron loss

Q: What about the “dopamine levels (protection of dopamine-secreting neurons)” value [4] of the same compound?
A: protected dopamine-secreting neurons from degeneration

Q: And the pole test latency [4]?
A: recovered to a near-normal latency time

Q: Which inhibition at 0.5 µM [1] does the source give for `Cc1cc(-c2cncc(-c3ccnc(Nc4cc(NC(=O)c5ccc(CN6CCN(C)CC6)cc5)ccc4C)n3)c2)sn1` [Compound 8190] here?
A: 100%

Q: With `Cc1ccc(NC(=O)c2ccc(CN3CCN(C)CC3)cc2)cc1Nc1nccc(-c2cncc(-c3nncs3)c2)n1` [Compound 8250] as the compound, how does the inhibition at 0.5 µM [1] read?
A: 100%

Q: For `Cc1cc(-c2cncc(-c3ccnc(Nc4cc(NC(=O)c5ccc(CN6CCN(C)CC6)cc5)ccc4C)n3)c2)on1` [Compound 207], which half-life [2] is on record?
A: 0.292 h

Q: And the fraction unbound [11]?
A: 0.141

Q: And the AUC(0-t) [3]?
A: 1650 ± 1080 ng·h/mL

Q: What about the Cmax [3] of the same compound?
A: 225 ± 83.8 ng/mL

Q: What about the Tmax [3] of the same compound?
A: 5.3 ± 1.2 h

Q: What about the Vd [3] of the same compound?
A: 6.5 ± 0.96 L/kg

Q: And the bioavailability [3]?
A: 32%

Q: What about the clearance [3] of the same compound?
A: 33.3 mL/min/kg

Q: And the half-life [3]?
A: 3.1 h

Q: And the “dopamine levels (protection of dopamine-secreting neurons)” value [4]?
A: protected dopamine-secreting neurons from degeneration

Q: And the pole test latency [4]?
A: recovered to a near-normal latency time

Q: What does the source list for `Cc1ccc(NC(=O)c2ccc(CN3CCN(C)CC3)cc2)cc1Nc1nccc(-c2cncc(-c3ccn(C)n3)c2)n1` [Compound 832]?
A: half-life [2]: 0.408 h; inhibition at 0.5 µM [1]: 100%; AUC(0-t) [3]: 3180 ± 930 ng·h/mL; Cmax [3]: 416 ± 84.5 ng/mL; Tmax [3]: 4 h; Vd [3]: 3.6 ± 1.8 L/kg; bioavailability [3]: 33%; clearance [3]: 21.7 mL/min/kg; half-life [3]: 2.6 h; dopamine levels (protection of dopamine-secreting neurons) [4]: protected dopamine-secreting neurons from degeneration; pole test latency [4]: recovered to a near-normal latency time

Q: Which inhibition at 0.5 µM [1] does the source give for `Cc1ccc(NC(=O)c2ccc(CN3CCNCC3)cc2)cc1Nc1nccc(-c2cncc(-c3ccncc3)c2)n1` [Compound 870] here?
A: 100%
